Key:
[1] = system: TRZAWR (Wheat, Winter, cv Riband); assay: Postemergence herbicidal evaluation; assay type: in vivo, Triticum aestivum; conditions: for TRZAWR herbicidal rating: postemergence
How it was run: (§1)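 Seedlings grown about two weeks were sprayed at 40 psi with compound dispersed in 50/50 acetone/water plus 0.5% TWEEN 20, at about 0.0156 to 0.500 kg/ha. Plants were kept in the greenhouse and scored 4–5 weeks later on a 0–9 visual scale against untreated controls.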

MOOVA (Monochoria) = assay: Preemergence weed control under flooded paddy conditions; assay type: in vivo, Monochoria vaginalis; conditions: rated 3-4 weeks after treatment
How it was run: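 Values are visual 0-9 scores against a control for a preemergence application into paddy flood water at about 0.0313 to 0.500 kg/ha. Greenhouse duration was three to four weeks.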

[2] = system: CHEAL (Lambsquarters, Common); assay: Preemergence herbicidal evaluation; assay type: in vivo, Chenopodium album; conditions: rated 4-5 weeks after treatment
How it was run: (§2)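 Sown cups got a single aqueous acetone spray of test compound (roughly 0.0156–0.500 kg/ha) before seedlings emerged. Evaluation, 4–5 weeks on, used a 0–9 visual scale covering plant stand, vigor, size, malformation, chlorosis and general appearance compared with controls.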

[3] = system: IPOHE (Morningglory, Ivyleaf); assay: Preemergence herbicidal evaluation; assay type: in vivo, Ipomoea hederacea; conditions: rated 4-5 weeks after treatment
How it was run: as §2

ABUTH (Velvetleaf) = assay: Postemergence herbicidal evaluation; assay type: in vivo, Abutilon theophrasti; conditions: for ABUTH herbicidal rating: postemergence
How it was run: as §1

[4] = system: ECHORC (Watergrass (Calif.)); assay: Preemergence weed control under flooded paddy conditions; assay type: in vivo, Echinochloa oryzoides; conditions: rated 3-4 weeks after treatment
How it was run: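 First, seeds or propagules go into the top 0.5 cm of silt loam; next, water is held 1.5 to 3 cm over the soil; then compound (50/50 acetone/water) is pipetted into it at about 0.0313 to 0.500 kg/ha; finally plants are rated visually 0-9 after three to four weeks.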

[5] = system: IPOHE (Morningglory, Ivyleaf); assay: Postemergence herbicidal evaluation; assay type: in vivo, Ipomoea hederacea; conditions: for IPOHE herbicidal rating: postemergence
How it was run: as §1

[6] = system: TRZAWR (Wheat, Winter, cv Riband); assay: Preemergence herbicidal evaluation; assay type: in vivo, Triticum aestivum; conditions: rated 4-5 weeks after treatment
How it was run: as §2

CYPIR (Rice Flatsedge) = assay: Postemergence weed control under flooded paddy conditions; assay type: in vivo, Cyperus iria; conditions: postemergence weeds, 3-4 weeks after treatment
How it was run: (§3)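 Herbicidal effect is judged by eye on a 0–9 scale versus control, 3–4 weeks after dosing. Dosing is into flood water kept 1.5–3 cm over the soil, at about 0.0313–0.500 kg/ha in aqueous/acetone 50/50 v/v, on 3–5 cm weeds and 1.5–2.5-leaf rice seedlings.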

[7] = system: ECHORC (Watergrass (Calif.)); assay: as above; assay type: in vivo, Echinochloa oryzoides; conditions: postemergence weeds, 3-4 weeks after treatment
How it was run: as §3

ECHCG (Barnyardgrass) = assay: Preemergence herbicidal evaluation; assay type: in vivo, Echinochloa crus-galli; conditions: rated 4-5 weeks after treatment
How it was run: as §2

SETVI (Foxtail, Green) = assay: Preemergence herbicidal evaluation; assay type: in vivo, Setaria viridis; conditions: rated 4-5 weeks after treatment
How it was run: as §2

ORYSAT (Rice, Tebonnet) = assay: Preemergence herbicidal evaluation; assay type: in vivo, Oryza sativa, (L.) Tebonnet; conditions: rated 4-5 weeks after treatment
How it was run: as §2

**Q.** What does the source list for Cn1c(C(F)(F)F)cc(=O)n(-c2cc(N=C3SCC(=O)N3CCC(=O)O)c(Cl)cc2F)c1=O [Compound 30, 2-{{2-Chloro-5-[3,6-dihydro-3-methyl-2,6-dioxo-4-(trifluoromethyl)-1(2H)-pyrimidinyl]-4-fluorophenyl}imino}-4-oxo-3-thiazolidinepropionic acid]?
**A.** Postemergence herbicidal rating TRZAWR ([1]; Rate 0.0158 kg/ha): 4.0; Postemergence herbicidal rating TRZAWR ([1]; Rate 0.0315 kg/ha): 4.5; Postemergence herbicidal rating TRZAWR ([1]; Rate 0.0630 kg/ha): 5.5; Herbicidal rating MOOVA (MOOVA (Monochoria); 0.1250 kg/ha): 1.5; Herbicidal rating MOOVA (MOOVA (Monochoria); 0.2500 kg/ha): 4.5; Preemergence herbicidal rating CHEAL ([2]; rate 0.0313 kg/ha): 0.0; Preemergence herbicidal rating CHEAL ([2]; rate 0.0625 kg/ha): 0.0; Preemergence herbicidal rating CHEAL ([2]; rate 0.1250 kg/ha): 9.0; Preemergence herbicidal rating CHEAL ([2]; rate 0.2500 kg/ha): 9.0; Preemergence herbicidal rating IPOHE ([3]; rate 0.0313 kg/ha): 0.0; Preemergence herbicidal rating IPOHE ([3]; rate 0.0625 kg/ha): 0.0; Preemergence herbicidal rating IPOHE ([3]; rate 0.1250 kg/ha): 1.0; Preemergence herbicidal rating IPOHE ([3]; rate 0.2500 kg/ha): 2.0; Postemergence herbicidal rating ABUTH (ABUTH (Velvetleaf); Rate 0.0158 kg/ha): 3.0; Postemergence herbicidal rating ABUTH (ABUTH (Velvetleaf); Rate 0.0315 kg/ha): 9.0; Postemergence herbicidal rating ABUTH (ABUTH (Velvetleaf); Rate 0.0630 kg/ha): 9.0; Herbicidal rating ECHORC ([4]; 0.1250 kg/ha): 0.0; Herbicidal rating ECHORC ([4]; 0.2500 kg/ha): 0.0; Postemergence herbicidal rating IPOHE ([5]; Rate 0.0158 kg/ha): 0.0; Postemergence herbicidal rating IPOHE ([5]; Rate 0.0315 kg/ha): 0.0; Postemergence herbicidal rating IPOHE ([5]; Rate 0.0630 kg/ha): 9.0; Preemergence herbicidal rating TRZAWR ([6]; rate 0.0313 kg/ha): 0.0; Preemergence herbicidal rating TRZAWR ([6]; rate 0.0625 kg/ha): 1.0; Preemergence herbicidal rating TRZAWR ([6]; rate 0.1250 kg/ha): 2.0; Preemergence herbicidal rating TRZAWR ([6]; rate 0.2500 kg/ha): 6.0; Herbicidal rating CYPIR (CYPIR (Rice Flatsedge); rate 0.1250 kg/ha): 2.0; Herbicidal rating CYPIR (CYPIR (Rice Flatsedge); rate 0.2500 kg/ha): 4.5; Herbicidal rating ECHORC ([7]; rate 0.1250 kg/ha): 0.0; Herbicidal rating ECHORC ([7]; rate 0.2500 kg/ha): 0.0; Preemergence herbicidal rating ECHCG (ECHCG (Barnyardgrass); rate 0.0313 kg/ha): 0.0; Preemergence herbicidal rating ECHCG (ECHCG (Barnyardgrass); rate 0.0625 kg/ha): 0.0; Preemergence herbicidal rating ECHCG (ECHCG (Barnyardgrass); rate 0.1250 kg/ha): 0.0; Preemergence herbicidal rating ECHCG (ECHCG (Barnyardgrass); rate 0.2500 kg/ha): 0.0; Preemergence herbicidal rating SETVI (SETVI (Foxtail, Green); rate 0.0313 kg/ha): 0.0; Preemergence herbicidal rating SETVI (SETVI (Foxtail, Green); rate 0.0625 kg/ha): 0.0; Preemergence herbicidal rating SETVI (SETVI (Foxtail, Green); rate 0.1250 kg/ha): 7.0; Preemergence herbicidal rating SETVI (SETVI (Foxtail, Green); rate 0.2500 kg/ha): 9.0; Preemergence herbicidal rating ORYSAT (ORYSAT (Rice, Tebonnet); rate 0.0313 kg/ha): 1.0; Preemergence herbicidal rating ORYSAT (ORYSAT (Rice, Tebonnet); rate 0.0625 kg/ha): 1.0; Preemergence herbicidal rating ORYSAT (ORYSAT (Rice, Tebonnet); rate 0.1250 kg/ha): 1.0; Preemergence herbicidal rating ORYSAT (ORYSAT (Rice, Tebonnet); rate 0.2500 kg/ha): 4.0

**Q.** Which TRZAWR herbicidal rating ([1]; rate 0.0158 kg/ha) does the source give for CCOC(=O)CN1C(=O)C(=Cc2ccc(F)cc2)SC1=Nc1cc(-n2c(=O)cc(C(F)(F)F)n(C)c2=O)c(F)cc1Cl [Compound 21, Ethyl 2-{{2-chloro-5-[3,6-dihydro-3-methyl-2,6-dioxo-4-(trifluoromethyl)-1(2H)-pyrimidinyl]-4-fluorophenyl}imino}-5-(p-fluorobenzylidene)-4-oxo-3-thiazolidineacetate] here?
**A.** 2.5

**Q.** What about the TRZAWR herbicidal rating ([1]; rate 0.0315 kg/ha) of the same compound?
**A.** 3.5

**Q.** What about the TRZAWR herbicidal rating ([1]; rate 0.0630 kg/ha) of the same compound?
**A.** 3.5

**Q.** And the “Herbicidal rating MOOVA” value (MOOVA (Monochoria); 0.1160 kg/ha)?
**A.** 0.0

**Q.** What about the “Herbicidal rating MOOVA” value (MOOVA (Monochoria); 0.2310 kg/ha) of the same compound?
**A.** 0.0

**Q.** And the “Herbicidal rating MOOVA” value (MOOVA (Monochoria); 0.4630 kg/ha)?
**A.** 0.0

**Q.** And the “CHEAL preemergence herbicidal rating” value ([2]; rate 0.2500 kg/ha)?
**A.** 9.0

**Q.** What about the “IPOHE preemergence herbicidal rating” value ([3]; rate 0.2500 kg/ha) of the same compound?
**A.** 0.0

**Q.** What about the ABUTH herbicidal rating (ABUTH (Velvetleaf); rate 0.0158 kg/ha) of the same compound?
**A.** 4.0

**Q.** And the ABUTH herbicidal rating (ABUTH (Velvetleaf); rate 0.0315 kg/ha)?
**A.** 7.0

**Q.** And the ABUTH herbicidal rating (ABUTH (Velvetleaf); rate 0.0630 kg/ha)?
**A.** 9.0

**Q.** What about the “Herbicidal rating ECHORC” value ([4]; 0.1160 kg/ha) of the same compound?
**A.** 2.0

**Q.** What about the “Herbicidal rating ECHORC” value ([4]; 0.2310 kg/ha) of the same compound?
**A.** 4.0

**Q.** And the “Herbicidal rating ECHORC” value ([4]; 0.4630 kg/ha)?
**A.** 5.0

**Q.** And the IPOHE herbicidal rating ([5]; rate 0.0158 kg/ha)?
**A.** 1.0

**Q.** And the IPOHE herbicidal rating ([5]; rate 0.0315 kg/ha)?
**A.** 2.0

**Q.** And the IPOHE herbicidal rating ([5]; rate 0.0630 kg/ha)?
**A.** 9.0

**Q.** What about the “TRZAWR preemergence herbicidal rating” value ([6]; rate 0.2500 kg/ha) of the same compound?
**A.** 0.0

**Q.** What about the “Herbicidal rating CYPIR” value (CYPIR (Rice Flatsedge); rate 0.1160 kg/ha) of the same compound?
**A.** 0.0

**Q.** And the “Herbicidal rating CYPIR” value (CYPIR (Rice Flatsedge); rate 0.2310 kg/ha)?
**A.** 0.0

**Q.** What about the “Herbicidal rating CYPIR” value (CYPIR (Rice Flatsedge); rate 0.4630 kg/ha) of the same compound?
**A.** 0.0

**Q.** And the “Herbicidal rating ECHORC” value ([7]; rate 0.1160 kg/ha)?
**A.** 2.0

**Q.** What about the “Herbicidal rating ECHORC” value ([7]; rate 0.2310 kg/ha) of the same compound?
**A.** 4.0

**Q.** What about the “Herbicidal rating ECHORC” value ([7]; rate 0.4630 kg/ha) of the same compound?
**A.** 5.0

**Q.** What about the “ECHCG preemergence herbicidal rating” value (ECHCG (Barnyardgrass); rate 0.2500 kg/ha) of the same compound?
**A.** 0.0

**Q.** And the “SETVI preemergence herbicidal rating” value (SETVI (Foxtail, Green); rate 0.2500 kg/ha)?
**A.** 0.0

**Q.** What about the “ORYSAT preemergence herbicidal rating” value (ORYSAT (Rice, Tebonnet); rate 0.2500 kg/ha) of the same compound?
**A.** 0.0

From US20020137929A1, “1 - (3-heterocyclylphenyl) isothiourea, -isourea, -guanidine and -amidine herbicidal agents” (Intellectual Property Department, BASF Aktiengesellschaft, priority 1998, published 2002)
